This is an account of results in patent publication US20230135152A1 (ACURASTEM INCORPORATED, priority 2020, published 2023).

Assay [1] deals with T1, PIKFYVE (Homo sapiens, UniProt Q9Y2I7). In words: Cell-based Pikfyve inhibition activity assay (EEA1 staining, mean vesicle size in BJ fibroblast cells). The settings on record: Table 4, 4 hours treatment, 3 μM Apilimod = 100% inhibition. The gist of the method:
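BJ fibroblasts treated 4 h at 37° C with eleven 3-fold doses (0.03-3000 nM), then fixed and stained for EEA1. Confocal images (20×, 16 tiles/well) analysed for mean vesicle size. Normalised to 0.5% DMSO (0%) and 3 μM apilimod (100%); dose-response fitted with variable slope.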

Assay [2] concerns the target T1, PIKFYVE. The assay can be described thus: PIKFYVE assay (luciferase ADP-Glo kinase assay, Promega). As to conditions: Table 3. In kind it is biochemical. The gist of the method:
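ADP generated in the kinase reaction was detected by ADP-Glo luminescence (luciferase).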

The structures appear in SMILES notation. Some results are limits rather than exact numbers.

T1 sequence (Q9Y2I7 whole entry): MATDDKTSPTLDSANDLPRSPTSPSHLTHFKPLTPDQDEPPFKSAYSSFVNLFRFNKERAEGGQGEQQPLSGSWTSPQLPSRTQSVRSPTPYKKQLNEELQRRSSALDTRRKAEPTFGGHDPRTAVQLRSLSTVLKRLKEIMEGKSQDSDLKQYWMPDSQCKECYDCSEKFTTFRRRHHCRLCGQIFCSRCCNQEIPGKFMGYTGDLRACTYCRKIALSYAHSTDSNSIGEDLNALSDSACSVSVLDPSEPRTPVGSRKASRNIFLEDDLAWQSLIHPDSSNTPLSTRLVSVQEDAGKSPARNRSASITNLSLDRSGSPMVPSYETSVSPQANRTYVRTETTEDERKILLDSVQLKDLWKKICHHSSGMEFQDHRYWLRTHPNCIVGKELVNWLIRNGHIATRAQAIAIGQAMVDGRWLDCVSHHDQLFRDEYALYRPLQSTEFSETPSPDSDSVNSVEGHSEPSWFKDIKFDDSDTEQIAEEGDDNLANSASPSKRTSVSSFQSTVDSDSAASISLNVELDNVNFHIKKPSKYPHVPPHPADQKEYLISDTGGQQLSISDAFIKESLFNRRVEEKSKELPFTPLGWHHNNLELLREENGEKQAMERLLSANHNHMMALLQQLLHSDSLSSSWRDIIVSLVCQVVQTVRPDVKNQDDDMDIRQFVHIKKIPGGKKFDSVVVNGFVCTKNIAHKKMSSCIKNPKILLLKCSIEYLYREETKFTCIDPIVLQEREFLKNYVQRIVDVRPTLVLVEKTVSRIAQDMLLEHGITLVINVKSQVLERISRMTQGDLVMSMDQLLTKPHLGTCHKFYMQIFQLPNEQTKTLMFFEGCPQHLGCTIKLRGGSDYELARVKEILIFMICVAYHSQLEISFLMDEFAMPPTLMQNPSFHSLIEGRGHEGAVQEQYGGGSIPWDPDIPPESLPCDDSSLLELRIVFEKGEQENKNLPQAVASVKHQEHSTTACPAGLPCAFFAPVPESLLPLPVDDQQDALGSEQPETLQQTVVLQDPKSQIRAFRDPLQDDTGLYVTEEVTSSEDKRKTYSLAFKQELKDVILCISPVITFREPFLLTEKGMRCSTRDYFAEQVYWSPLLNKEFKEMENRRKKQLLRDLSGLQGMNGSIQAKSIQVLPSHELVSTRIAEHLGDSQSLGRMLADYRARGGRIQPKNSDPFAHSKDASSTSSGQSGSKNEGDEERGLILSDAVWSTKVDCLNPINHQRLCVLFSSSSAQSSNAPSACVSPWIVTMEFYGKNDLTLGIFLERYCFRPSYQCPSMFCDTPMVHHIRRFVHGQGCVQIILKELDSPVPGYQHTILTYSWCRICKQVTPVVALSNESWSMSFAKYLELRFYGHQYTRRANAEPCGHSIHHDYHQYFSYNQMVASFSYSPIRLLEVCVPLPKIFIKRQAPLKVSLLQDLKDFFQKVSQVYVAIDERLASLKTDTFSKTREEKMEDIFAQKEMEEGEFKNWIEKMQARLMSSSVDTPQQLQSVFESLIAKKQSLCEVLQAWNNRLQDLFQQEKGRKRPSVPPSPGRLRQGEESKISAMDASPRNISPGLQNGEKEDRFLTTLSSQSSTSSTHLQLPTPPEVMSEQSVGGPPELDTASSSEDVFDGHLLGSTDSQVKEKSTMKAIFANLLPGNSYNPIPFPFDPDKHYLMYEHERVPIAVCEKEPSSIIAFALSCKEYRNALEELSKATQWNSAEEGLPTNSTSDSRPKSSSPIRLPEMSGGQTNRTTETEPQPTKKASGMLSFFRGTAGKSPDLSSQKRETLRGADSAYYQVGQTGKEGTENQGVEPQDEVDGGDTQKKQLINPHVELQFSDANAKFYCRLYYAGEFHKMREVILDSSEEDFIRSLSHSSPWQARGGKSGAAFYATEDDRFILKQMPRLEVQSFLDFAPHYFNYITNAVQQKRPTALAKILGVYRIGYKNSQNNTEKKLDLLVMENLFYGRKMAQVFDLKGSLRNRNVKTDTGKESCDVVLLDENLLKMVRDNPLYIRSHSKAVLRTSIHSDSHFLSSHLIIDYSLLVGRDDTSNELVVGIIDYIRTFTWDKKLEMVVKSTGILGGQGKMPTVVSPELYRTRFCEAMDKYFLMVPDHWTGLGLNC

Turning to `Cc1cccc(-c2ccn(-c3cc(N4CCOCC4)nc(COCc4cn[nH]c4)n3)n2)c1` [Compound 300, 4-(2-(((1H-pyrazol-4-yl)methoxy)methyl)-6-(3-(m-tolyl)-1H-pyrazol-1-yl)pyrimidin-4-yl)morpholine], the EC50 (in general, the concentration that produces a half-maximal response) at PIKFYVE [1] lay in the range of 20 to 100 nM. Besides, the IC50 – broadly, the point on the concentration scale where inhibition reaches its midpoint – against PIKFYVE [2] is below 3 nM.

Compound `Cc1cc(Oc2ccn(-c3cc(N4CCOCC4)nc(OCCc4cnn(C)c4)n3)n2)ccn1` [Compound 302, 4-(2-(2-(1-methyl-1H-pyrazol-4-yl)ethoxy)-6-(3-((2-methylpyridin-4-yl)ox)-1H-pyrazol-1-yl)pyrimidin-4-yl)morpholine] displayed an EC50 at PIKFYVE [1] above 5000 nM. Further, the IC50 against PIKFYVE [2] was 10 to 100 nM.

On to `Cn1cc(CCOc2nc(N3CCOCC3)cc(-n3ccc(Oc4ccncc4)n3)n2)cn1` [Compound 303, 4-(2-(2-(1-methyl-1H-pyrazol-4-yl)ethoxy)-6-(3-(pyridin-4-yloxy)-1H-pyrazol-1-yl)pyrimidin-4-yl)morpholine], for which, on PIKFYVE [1], the EC50 is above 5000 nM. In addition, the IC50 at PIKFYVE [2] fell in the range of 100 to 5000 nM.

`Cc1cccc(-c2ccn(-c3cc(N4CCOCC4)nc(/C=C/c4cnn(C)c4)n3)n2)c1` [Compound 304, (E)-4-(2-(2-(1-methyl-1H-pyrazol-4-yl)vinyl)-6-(3-(m-tolyl)-1H-pyrazol-1-yl)pyrimidin-4-yl)morpholine] registered an EC50 at PIKFYVE [1] of 20 to 100 nM. This compound also gave an IC50 against PIKFYVE [2] of 3 to 10 nM.

Consider `Cc1cccc(-c2ccn(-c3cc(N4CCOCC4)nc(CCc4cccnn4)n3)n2)c1` [Compound 317, 4-(2-(2-(pyridazin-3-yl)ethyl)-6-(3-(m-tolyl)-1H-pyrazol-1-yl)pyrimidin-4-yl)morpholine], for which, at PIKFYVE [1], the EC50 fell in the range of 100 to 500 nM. This compound also displayed an IC50 against PIKFYVE [2] of 3 to 10 nM.

The compound `Cc1cccc(-c2ccn(-c3cc(N4CCOCC4)nc(C4CCOCC4)n3)n2)c1` [Compound 326, 4-(2-(tetrahydro-2H-pyran-4-yl)-6-(3-(m-tolyl)-1H-pyrazol-1-yl)pyrimidin-4-yl)morpholine] had an EC50 on PIKFYVE [1] of 500 to 5000 nM. At PIKFYVE [2], the IC50 lay within 10 to 100 nM.

Consider `Cc1cccc(-c2ccn(-c3cc(N4CCOCC4)nc([C@H]4C[C@@H](O)CO4)n3)n2)c1` [Compound 331, (3R,5R)-5-(4-morpholino-6-(3-(m-tolyl)-1H-pyrazol-1-yl)pyrimidin-2-yl)tetrahydrofuran-3-ol], for which, on PIKFYVE [1], the EC50 is 100 to 500 nM. Further, on PIKFYVE [2], the IC50 is 3 to 10 nM.

Consider `Cc1cccc(-c2ccn(-c3cc(N4CCOCC4)nc([C@H]4C[C@H](O)CO4)n3)n2)c1` [Compound 332, (3S,5R)-5-(4-morpholino-6-(3-(m-tolyl)-1H-pyrazol-1-yl)pyrimidin-2-yl)tetrahydrofuran-3-ol], for which the concentration giving a half-maximal response (EC50) on PIKFYVE [1] was in the range of 500 to 5000 nM. Also, the IC50 on PIKFYVE [2] was in the range of 3 to 10 nM.

As to `Cc1cccc(-c2ccn(-c3cc(N4CCOCC4)c4[nH]c(C)cc4n3)n2)c1` [Compound 334, 4-(2-methyl-5-(3-(m-tolyl)-1H-pyrazol-1-yl)-1H-pyrrolo[3,2-b]pyridin-7-yl)morpholine], the EC50 on PIKFYVE [1] was in the range of 500 to 5000 nM. The same compound came in with an IC50 against PIKFYVE [2] of 10 to 100 nM.

As for `Cc1cccc(-c2ccn(-c3cc(N4CCOCC4)c4[nH]cc(C)c4n3)n2)c1` [Compound 335, 4-(3-methyl-5-(3-(m-tolyl)-1H-pyrazol-1-yl)-1H-pyrrolo[3,2-b]pyridin-7-yl)morpholine], on PIKFYVE [1], the EC50 was 500 to 5000 nM. The compound further showed an IC50 on PIKFYVE [2] of 10 to 100 nM.

On to `Cc1cccc(-c2ccn(-c3cc(N4CCOCC4)n4nc(C)cc4n3)n2)c1` [Compound 336, 4-(2-methyl-5-(3-(m-tolyl)-1H-pyrazol-1-yl)pyrazolo[1,5-a]pyrimidin-7-yl)morpholine], for which the EC50 on PIKFYVE [1] is 500 to 5000 nM. This compound came in with an IC50 against PIKFYVE [2] of 10 to 100 nM.

At PIKFYVE [1], `Cc1cccc(-c2ccn(-c3cc(N4CCOCC4)n4ncc(C)c4n3)n2)c1` [Compound 337, 4-(3-methyl-5-(3-(m-tolyl)-1H-pyrazol-1-yl)pyrazolo[1,5-a]pyrimidin-7-yl)morpholine] displayed an EC50 of 500 to 5000 nM. For the same compound, the IC50 against PIKFYVE [2] was in the range of 10 to 100 nM.
